Experimental findings from paper PMC11277991, “Tunicamycins from Marine-Derived Streptomyces bacillaris Inhibit MurNAc-Pentapeptide Translocase in Staphylococcus aureus” (Marine Drugs, 2024) are described below.

The assay concerns the target T1, MurNAc-pentapeptide translocase (MraY) (Staphylococcus aureus, UniProt Q2FZ93).
T1 construct: recombinant His6-tagged MraY from S. aureus ATCC6538p (ca. 36 kDa), expressed in E. coli BL21(DE3)
Briefly: UMP-Glo luminescence glycosyltransferase assay with purified MraY. The assay is classed as biochemical.

T1 sequence (Q2FZ93 whole entry): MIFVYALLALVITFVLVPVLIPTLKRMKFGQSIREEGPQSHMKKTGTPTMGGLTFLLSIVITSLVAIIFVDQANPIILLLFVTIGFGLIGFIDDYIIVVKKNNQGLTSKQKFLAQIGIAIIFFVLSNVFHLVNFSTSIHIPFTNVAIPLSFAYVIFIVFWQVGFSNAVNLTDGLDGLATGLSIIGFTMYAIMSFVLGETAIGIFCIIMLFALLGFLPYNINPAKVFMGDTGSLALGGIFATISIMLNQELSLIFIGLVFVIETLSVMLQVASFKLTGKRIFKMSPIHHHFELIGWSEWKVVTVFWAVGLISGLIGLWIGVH

For orientation: IC50 means the point on the concentration scale where inhibition reaches its midpoint. Read a low IC50 as greater potency. Compound `CCCCCCCCCCCCC/C=C/C(=O)N[C@H]1[C@H](O[C@H]2O[C@H](CO)[C@@H](O)[C@H](O)[C@H]2NC(C)=O)O[C@H](C[C@@H](O)[C@H]2O[C@@H](n3ccc(=O)[nH]c3=O)[C@H](O)[C@@H]2O)[C@H](O)[C@@H]1O` [compound 2, tunicamycin VIII] showed an IC50 of 154 nM. That is a sub-micromolar value.
The figure for `CC(=O)N[C@H]1[C@@H](O[C@@H]2O[C@H](C[C@@H](O)[C@H]3O[C@@H](n4ccc(=O)[nH]c4=O)[C@H](O)[C@@H]3O)[C@H](O)[C@H](O)[C@H]2NC(=O)/C=C/CCCCCCCCCCC(C)C)O[C@H](CO)[C@@H](O)[C@@H]1O` [compound 1, tunicamycin VII] is 142 nM; for `CCCCCCCCCCCCCC/C=C/C(=O)N[C@H]1[C@H](O[C@H]2O[C@H](CO)[C@@H](O)[C@H](O)[C@H]2NC(C)=O)O[C@H](C[C@@H](O)[C@H]2O[C@@H](n3ccc(=O)[nH]c3=O)[C@H](O)[C@@H]2O)[C@H](O)[C@@H]1O` [compound 4, tunicamycin IX] it is 244 nM; for `CCC(C)CCCCCCCCCC/C=C/C(=O)N[C@H]1[C@H](O[C@H]2O[C@H](CO)[C@@H](O)[C@H](O)[C@H]2NC(C)=O)O[C@H](C[C@@H](O)[C@H]2O[C@@H](n3ccc(=O)[nH]c3=O)[C@H](O)[C@@H]2O)[C@H](O)[C@@H]1O` (stereo partly shown) [compound 3, corynetoxin U17a] it is 93.1 nM.
